Data on twelve compounds can be found in ChEMBL document CHEMBL5606458, “ASAP - ZIKV NS2B-NS3 protease fluorescence single point” (2024).

The inhibition is the share of the control response that was lost under treatment. A low value points to little suppression.

Structures are written as SMILES.

Chain of Nonstructural protein 3 (Zika virus) (A0A024AXB9 as listed by the source): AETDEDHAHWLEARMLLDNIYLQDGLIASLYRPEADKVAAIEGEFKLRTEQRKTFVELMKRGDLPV

The experiment concerns the target Nonstructural protein 3 (Zika virus) (UniProt A0A024AXB9). Kind of experiment: Functional biochemical assay to identify treatments for viral infectious disease that targets Zika NS2B-NS3 protease. Utilizing a direct enzyme activity measurement method, reading the fluorescence intensity is used to characterize the relative potency of inhibitors as % inhibition. Synthetic construct has been made based on Zika virus (strain PRVABC59) by Centre for Medicines Discovery, University of Oxford, and the assay has been performed by Stanford University.The protocol is publicly available: dx.doi.org/10.17504/protocols.io.4r3l29533v1y/v1. The settings on record: Concentration 25.0 uM, Number of replicates 1.0.
Regarding `O=Cc1nc(-c2ccccc2Cl)n2ccccc12`, the inhibition amounted to 48.3%. For the compound `CN(C)c1ccc(C=C(C#N)C(N)=O)cc1`, the inhibition turned out to be 50.7%.

In turn, `CC[C@H]1CO[C@H](C)CN1c1ccc(C=O)cn1` returned an inhibition of 61.5%.

Regarding `O=Cc1ccc(N2CCCCC2)cc1`, the inhibition turned out to be 49%.

Compound `Cc1c(C=O)c2ccccn2c1C#N` registered an inhibition of 48.9%. The compound `Cc1cc(NS(=O)(=O)c2ccc(S(=O)(=O)F)cc2)c[nH]c1=O` had an inhibition of 60.6%. `Cc1c(C=O)c2ccccn2c1C(=O)c1ccncc1` showed an inhibition of 48.3%. The result for `O=Cc1ccc(N2CCC(C(=O)O)CC2)cc1` reads 66%. The figure for `O=Cc1ccc(N2CCCCCC2)cc1` is 46.5%.

As to `Nc1ccc2ccc(B(O)O)cc2c1`, the inhibition was 81%. As for `Cc1nc(C=O)c2ccccn12`, the inhibition was 45%. The compound `O=Cc1ccc(N2CCC(C(=O)O)CC2)o1` returned an inhibition of 55.4%.
